Measurements reported in article PMC5854746 (Cancer Chemotherapy and Pharmacology, 2018).
“And” between values parts separate entries of the source, which are not always exact repeats. Equal entries are not always repeated. “Also recorded” adds a separate entry of the source. Where two headings read alike, the source gives them in different places.

Assays:
clinical = conditions: human, plasma; for clearance: Cltot; for half-life: T 1/2el; for Vd: V d; for AUC(0-t): 100 mg p.o.
Excerpt: Patients eligible for this phase 1b study suffered from histologically or cytologically documented adenocarcinoma of the pancreas with locally advanced not radically resectable or metastatic disease. […] All concomitant medication was reported and the intake of drugs inhibiting or inducing CYP3A4 was prohibited during the study, along with medication specifically contraindicated to one of the three study drugs [1, 23, 24]. All patients were asked to keep a diary during their treatment, containing co-medication and health status to retrace possible interactions and treatment failures.
Patients had been informed about the aim of this investigation and had given their written consent.
For the pharmacokinetic analysis of plasma concentration data on day 1, Phoenix WinNonlin version 6.2.1 software (Pharsight Corporation, a Certara™ company) was used to calculate the PK parameters Cpeak, Ctrough, Tmax, AUC0–24 as well as the volume of distribution (Vd), total body clearance (Cltot) and terminal half-life (T1/2el). […] From day 2 until day 8, the trough and peak concentrations were analyzed, but only the trough concentrations were evaluated until the end of the study. The parameters were calculated as arithmetic mean ± SD and the range (min–max) was calculated for comparison to the simulation output.

[1] = oral; 9 (ref 1, 11); cited from earlier work
[2] = tested on: plasma proteins, mainly albumin and α-1 acid glycoprotein; conditions: cited from earlier work
[3] = Optimized value, updated based on literature data ref 1, 32; cited from earlier work
[4] = cited from earlier work
[5] = oral, mean ± SD, Day 1, observed, n=26, calculated with a bioavailability of 60%
[6] = oral, min–max, Day 1, observed, n=26
[7] = Day 3, observed, 100 mg p.o. q.d., n=26
[8] = Day 6 (steady state), observed, 100 mg p.o. q.d., n=26
[9] = co-administered ARAs, study population
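Wherever C last (trough at 24 h), mean ± SD is given: plasma pharmacokinetics in a phase 1b study of patients with locally advanced or metastatic pancreatic adenocarcinoma.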
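Wherever C peak, mean ± SD is given: plasma pharmacokinetics in a phase 1b study of patients with locally advanced or metastatic pancreatic adenocarcinoma.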
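Wherever Tmax is given: plasma pharmacokinetics in a phase 1b study of patients with locally advanced or metastatic pancreatic adenocarcinoma.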
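Wherever Vd is given: plasma pharmacokinetics in a phase 1b study of patients with locally advanced or metastatic pancreatic adenocarcinoma.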

C#Cc1cccc(Nc2ncnc3cc(OCCOC)c(OCCOC)cc23)c1 [erlotinib]
clearance (clinical; [5]): 91.8 mL/min
clearance (clinical; [6]): 7.83 to 502 mL/min
concentration at 24 h (clinical; oral, Mean erlotinib trough concentrations calculated for each patient, range, long-term study, 10 patients, 100 mg q.d.): 60 to 1780 ng/mL
concentration at 24 h (clinical; oral, Mean trough concentration ± SD, Pat.1, weeks 1–15, N=10, 100 mg erlotinib q.d.): 1670 ± 440 ng/mL
concentration at 24 h (clinical; oral, Mean trough concentration ± SD, Pat.10, co-medication of acid reducing agents, weeks 1–11, N=11, 100 mg q.d.): 160 ± 60 ng/mL
concentration at 24 h (clinical; oral, Mean trough concentration ± SD, Pat.2, co-medication of acid reducing agents, weeks 1–9, N=9, 100 mg q.d.): 160 ± 40 ng/mL
concentration at 24 h (clinical; oral, Mean trough concentration ± SD, Pat.8, co-medication of acid reducing agents, weeks 1–16, N=16, 100 mg q.d.): 270 ± 380 ng/mL
concentration at 24 h (clinical; oral, Mean trough concentration ± SD, Pat.9, co-medication of acid reducing agents, weeks 1–50, N=47, 100 mg q.d.): 60 ± 40 ng/mL
half-life (clinical; oral, mean ± SD, Day 1, observed, n=26): 18.7 ± 13.1 h
half-life (clinical; [6]): 4.1 to 59 h
concentration at 24 h (clinical; oral, Trough concentration min–max, Pat.1, weeks 1–15, N=10, 100 mg erlotinib q.d.): 770 to 2200 ng/mL
concentration at 24 h (clinical; oral, Trough concentration min–max, Pat.10, co-medication of acid reducing agents, weeks 1–11, N=11, 100 mg q.d.): 70 to 310 ng/mL
concentration at 24 h (clinical; oral, Trough concentration min–max, Pat.8, co-medication of acid reducing agents, weeks 1–16, N=16, 100 mg q.d.): 20 to 1310 ng/mL
concentration at 24 h (clinical; oral, Trough concentration min–max, Pat.9, co-medication of acid reducing agents, weeks 1–50, N=47, 100 mg q.d.): 10 to 160 ng/mL
concentration at 24 h (clinical; oral, Trough plasma concentrations, range, long-term assessment (up to 50 weeks), 100 mg q.d., 10 patients): 10 to 2400 ng/mL
Vd (clinical; [5]): 97.9 ± 61.7 L
Vd (clinical; [6]): 18 to 268 L
Tmax (clinical; po, 100 mg): 1 to 8 h
AUC(0-t) (clinical; po, 100 mg, AUC0–24, mean ± SD, Day 1, observed, n=26): 12500 ± 9380 ng·h/mL
AUC(0-t) (clinical; po, 100 mg, AUC0–24, min–max, Day 1, observed, n=26): 1230 to 36400 ng·h/mL
concentration at 24 h (clinical; po, C last (trough at 24 h), mean ± SD, Day 1, observed, 100 mg p.o. q.d., n=26): 330 ng/mL
concentration at 24 h (clinical; po, C last (trough at 24 h), min–max, Day 1, observed, 100 mg p.o. q.d., n=26): 40 to 1220 ng/mL
Bioavailability (estimated) [1]: 60%
C peak, mean ± SD (Day 1, observed, 100 mg erlotinib p.o. q.d., patients n=26, arithmetic mean): 0.84 µg/mL and 0.84 ± 0.54 µg/mL
C last (trough at 24 h), mean ± SD (Day 1, observed, 100 mg p.o. q.d., n=26): 330 ± 290 ng/mL
T max, median (Day 1, observed, 100 mg p.o., n=26): 2.00 h
C peak, mean ± SD [7]: 1.04 ± 0.62 µg/mL
C trough, mean ± SD [7]: 450 ± 370 ng/mL
C peak, mean ± SD [8]: 1.38 µg/mL and 1.38 ± 0.66 µg/mL
C trough, mean ± SD [8]: 720 ng/mL and 720 ± 530 ng/mL
Mean trough concentration ± SD (Pat.3, weeks 1–50, N=50, 100 mg q.d.): 0.89 ± 0.68 µg/mL
Mean trough concentration ± SD (Pat.4, weeks 1–8, N=7, 100 mg q.d.): 0.66 ± 0.27 µg/mL
Mean trough concentration ± SD (Pat.5, co-medication of acid reducing agents, weeks 1–4, N=4, 100 mg q.d.): 0.37 ± 0.09 µg/mL
Mean trough concentration ± SD (Pat.6, weeks 1–8, N=8, 100 mg q.d.): 1.78 ± 0.74 µg/mL
Mean trough concentration ± SD (Pat.7, weeks 1–9, N=9, 100 mg q.d.): 1.20 ± 0.51 µg/mL
Reduction of AUC0–24 [9]: 52%
Reduction of Cmax [9]: 56%
Patients with concentrations below the activity threshold of 0.5 µg/ml (during the first week): 7%
Patients that never reached the threshold of 0.5 µg/ml (first week of erlotinib therapy): 2 of the 26 patients
Patients with Ctrough values below the activity threshold (long-term analysis, all received ARAs concomitantly): 5 of the 10 patients
Accumulation of erlotinib in plasma (long-term monitoring up to 50 weeks, 100 mg q.d.): did not show any significant accumulation; also recorded: did not lead to drug accumulation
Patients that did not reach the threshold of 0.5 µg/ml (within 24 h after the first administration): 10 of the 26 patients
Bound to plasma proteins [2]: approximately 95%
Basic pKa [3]: 5.4
Intrinsic solubility [3]: 8.9 µg/mL
Solubility in water ([4]; free base): only very slightly soluble in water
Biopharmaceutics Classification System (BCS) class ([4]; low solubility, high permeability): class II
pKa ([4]; weak base, limited solubility at pH above it): 5.4
